# Reference: patent publication US10064909B2, “Compositions and methods for chronic use of a weight-gaining compound” (priority 2015, dated 2018)
# What was measured:
# Type in all cases: in vivo
# [1] = Capromorelin efficacy in cats for 21 days: food consumption and bodyweight; conditions: for mean food intake increase over baseline: Day 1 to Day 21 vs Days -3 to -1
# Method: Thirty-two cats (16 neutered males, 16 females) were divided into 4 treatment groups including 4 animals of each sex per group. The cats were acclimated to the study environment for 10 days prior to study start. All cats were orally dosed with placebo (Group 1) or capromorelin (30 mg/ml oral solution, Formulation 9 as described above) at 1 mg/kg (Group 2), 2 mg/kg (Group 3) or 3 mg/kg (Group 4), for 21 days, with dosing starting on Day 1. Physical examinations were performed on Day −10 and general health observations made daily. Body weights were evaluated on Days −10, −8, −1, 1, 8, 15 and 22 days. Cats were fed about 1 hour after dosing. Commercial dry cat food (300 g) was provided for 5 hours and then removed and the amount of food consumed (g) calculated per cat. On Days 1, 14 and 21, blood samples were collected prior to daily dose administration and at 8 hours post-dose and serum processed for measurement of IGF-1 levels.
# On Day 12, two study animals (one male each from Groups 1 and 4) were removed for reasons unrelated to the study and were not included in the data analysis. Cat 4M4 in the 3 mg/kg group lost significant weight during the first 8 days of treatment—then rebounded and began to gain the weight back. Statistical analysis for weight gain was completed with and without this cat's (4M4) data included.
# [2] = Two-week oral toxicity study in cats
# Method: This study determined the safety of capromorelin when administered orally to cats. Groups of 3 male and 3 female (n=6/group) mixed breed cats were given capromorelin as an oral capsule once daily at doses of 9, 15, 30 and 60 mg/kg for 14 consecutive days. A similar group was given microcrystalline cellulose as a placebo control. All animals were observed daily for clinical signs and assessed for food consumption, with bodyweights recorded 7 days before dosing and again at euthanasia. Other measurements included periodic clinical pathology evaluations of hematology, serum chemistry and urinalysis. After the dosing period, cats were euthanized and necropsied.
# IGF-1 = test: Dose titration laboratory study (10 days): serum IGF-1; conditions: cats
# Method: This study defined a capromorelin oral solution dose regime that provides increased food intake and weight gain and the accompanying desired profile of IGF-1 serum levels. Laboratory adult cats were housed individually and divided into five groups (3/sex/group; n=6/group). Cats were dosed once daily for 10 consecutive days with either placebo, 1 mg/kg AT-002, 2 mg/kg AT-002, 3 mg/kg AT-002 or 4 mg/kg AT-002. The test article was a flavored solution formulation very similar to the final formulation. Study activities are summarized at Table 5.
# [3] = Laboratory cats modelling CKD safety pilot study
# Description: This study sought to define a capromorelin pharmacokinetic profile in serum of cats with compromised kidney function, to determine if accumulation of capromorelin in serum occurred after 14 days of treatment, and to observe cats for any potential adverse effects of treatment not seen in normal cats. The target population for the capromorelin oral solution included cats with CKD. Therefore, this study used laboratory with significant portions of their kidneys surgically removed and subsequently compromised kidney function indicated by increased serum creatinine and BUN. These cats were developed as a model by Charles River, and are maintained at a colony at their facility in Ballina, Ireland.
# Sixteen cats with compromised kidney function were enrolled in the study and randomized to three groups. Animals assigned to Group 1 (n=6) were administered AT-002 once on Day 0 by intravenous catheter at a dose rate of 0.75 mg/kg per cat. Animals assigned to Group 2 (n=6) were administered the AT-002 daily for 14 days by subcutaneous injection at a dose rate of 2 mg/kg. Subcutaneous and intravenous treatment routes were used to assure that sufficient drug exposure occurred. Animals assigned to Group 3 (n=4) served as untreated controls.
# Blood samples were collected for capromorelin and/or IGF-1 analysis from animals assigned to Group 1 on Study Day 0. Blood samples were also collected from animals assigned to Groups 2 and 3 on Study Days −1 and 13 (prior to dosing) for hematology and clinical chemistry analysis. Appetite was assessed by food intake and weight gain. Bodyweight measurements were performed on Days −7, −1 (all groups) and on Day 13 (Groups 2 and 3 only). Food intake was monitored from Day −7 to Day 13 inclusive for animals assigned to Groups 2 and 3. Animals were observed daily for clinical signs.
smiles,measurement,setting,value
"CN1N=C2CCN(C(=O)[C@@H](COCc3ccccc3)NC(=O)C(C)(C)N)C[C@@]2(Cc2ccccc2)C1=O.O=C(O)C(O)C(O)C(=O)O [capromorelin, N-[(2R)-1-[(3aR)-2-methyl-3-oxo-3a-(phenylmethyl)-6,7-dihydro-4H-pyrazolo[4,3-c]pyridin-5-yl]-1-oxo-3-(phenylmethoxy)propan-2-yl]-2-amino-2-methylpropanamide L-tartrate]",mean percent bodyweight change,"[1]; 1 mg/kg (Group 2), Day 15",4.24%
same,mean percent bodyweight change,"[1]; 1 mg/kg (Group 2), Day 22 (21-day exposure)",5.41%
same,mean food intake increase over baseline,[1]; 1 mg/kg oral (Group 2),25.32%
same,mean percent bodyweight change,"[1]; 2 mg/kg (Group 3), Day 8",3.23%
same,mean percent bodyweight change,"[1]; 2 mg/kg (Group 3), Day 15",5.97%
same,mean percent bodyweight change,"[1]; 2 mg/kg (Group 3), Day 22 (21-day exposure)",6.61%
same,mean food intake increase over baseline,[1]; 2 mg/kg oral (Group 3),45.67%
same,mean food consumption change from baseline,"[1]; 2 mg/kg, interval Day 8 through Day 14",54.42%
same,mean percent bodyweight change,"[1]; 3 mg/kg (Group 4), 21-day exposure",3.92%
same,mean food intake increase over baseline,[1]; 3 mg/kg oral (Group 4),29.59%
same,NOAEL at 14 days,"[2]; both sexes, mixed breed, cat, in vivo, cats, oral capsule once daily, 14 days, read-out: no-observed-adverse-effect-level (NOAEL)",15 mg/kg/day
same,30 mg/kg dose level relative to proposed clinically effective dose,[2]; cats,15 times
same,clinical pathology changes,"[2]; cats, 15 to 60 mg/kg dosing groups, sporadic",increases in serum and urine glucose
same,clinical signs related to capromorelin,"[2]; cats, 30 and 60 mg/kg treatment groups","emesis, sporadic salivation, and lethargy/depression"
same,tissue findings at necropsy (gross and microscopic),"[2]; cats, 14 days",not associated with any abnormal tissue findings
same,tolerability,"[2]; cats, oral capsule 9, 15, 30 and 60 mg/kg, 14 days",well tolerated
same,mean absolute and relative liver weights,"[2]; females 30 and 60 mg/kg, absolute liver weights in males at all dosages",increased
same,time of initial IGF-1 response (increase),"IGF-1; following treatment, Days 1 and 10",about 4 hours
same,duration of elevated IGF-1 levels post-dose,IGF-1; once-a-day dosing,24 h
same,time to maximum relatively steady IGF-1 level,"IGF-1; post-dose, Days 1 and 10",≤ 8 h
same,bodyweight,"[3]; Group 2, 2 mg/kg/day subcutaneous, Day -7 to Day 13",lost bodyweight
same,"appetite stimulation (food intake, bodyweight)","[3]; cats with compromised kidney function, 2 mg/kg subcutaneous daily 14 days",unable to stimulate appetite
same,drug accumulation (pharmacokinetic profiles),"[3]; cats with compromised kidney function, IV 0.75 mg/kg once or SC 2 mg/kg daily 14 days",no evidence of drug accumulation
